Measured values reported in ChEMBL document CHEMBL3885881, “DrugMatrix”.

Organism: Rattus norvegicus
Experiment: DrugMatrix - Regimen: Daily Repeat
Type: toxicity, organism-based, Sprague-Dawley
Set-up: regimen Daily Repeat, gender Male, age 6-8 weeks
Conditions: in vivo, po, route oral GAVAGE, vehicle 100 % SALINE; for ABSOLUTE BASOPHIL / ABSOLUTE EOSINOPHIL / ABSOLUTE LYMPHOCYTE / ABSOLUTE MONOCYTE / ABSOLUTE SEGMENTED NEUTROPHIL / BASOPHIL / EOSINOPHIL / ERYTHROCYTE COUNT / HEMATOCRIT / HEMOGLOBIN / LEUKOCYTE COUNT / LYMPHOCYTE / MEAN CORPUSCULAR HEMOGLOBIN / MEAN CORPUSCULAR HEMOGLOBIN CONCENTRATION / MEAN CORPUSCULAR VOLUME / MONOCYTE / NEUTROPHIL / NUCLEATED RED BLOOD CELLS / PLATELET COUNT: tissue Blood; for ALANINE AMINOTRANSFERASE / ALBUMIN / ALKALINE PHOSPHATASE / ASPARTATE AMINOTRANSFERASE / BLOOD UREA NITROGEN / CARBON DIOXIDE / CHLORIDE / CHOLESTEROL / CREATINE PHOSPHOKINASE / CREATININE / GLUCOSE / LACTATE DEHYDROGENASE / LIPASE / PHOSPHORUS / POTASSIUM / SODIUM / TOTAL BILIRUBIN / TOTAL PROTEIN / URIC ACID: tissue Plasma
[1] = 0 mg/kg, 72 h, dose level Control, time 3 day
[2] = 0 mg/kg, 120 h, dose level Control, time 5 day
[3] = 34 mg/kg, 72 h, dose level High, time 3 day
[4] = 34 mg/kg, 120 h, dose level High, time 5 day

CCN(CC)N=O [N-NITROSODIETHYLAMINE]
ABSOLUTE BASOPHIL [1]: 0 CELLS/uL | ABSOLUTE EOSINOPHIL [1]: 0 CELLS/uL | ABSOLUTE LYMPHOCYTE [1]: 8960.83 CELLS/uL | ABSOLUTE MONOCYTE [1]: 103.5 CELLS/uL | ABSOLUTE SEGMENTED NEUTROPHIL [1]: 635.67 CELLS/uL | BASOPHIL [1]: 0% | EOSINOPHIL [1]: 0% | ERYTHROCYTE COUNT [1]: 5.09 x10E6/uL | HEMATOCRIT [1]: 31.8% | HEMOGLOBIN [1]: 12.42 G/DL | LEUKOCYTE COUNT [1]: 9.7 x10E3/uL | LYMPHOCYTE [1]: 92.33% | MEAN CORPUSCULAR HEMOGLOBIN [1]: 24.4 pg | MEAN CORPUSCULAR HEMOGLOBIN CONCENTRATION [1]: 39.07 G/DL | MEAN CORPUSCULAR VOLUME [1]: 62.47 fL | MONOCYTE [1]: 1% | NEUTROPHIL [1]: 6.67% | NUCLEATED RED BLOOD CELLS [1]: 0 /100WBC | PLATELET COUNT [1]: 466.5 x10E3/uL | ALANINE AMINOTRANSFERASE [1]: 83.33 u/L | ALBUMIN [1]: 4.33 G/DL | ALKALINE PHOSPHATASE [1]: 340.5 u/L | ASPARTATE AMINOTRANSFERASE [1]: 189.83 u/L | BLOOD UREA NITROGEN [1]: 15.83 mg/dL | CARBON DIOXIDE [1]: 38 mmol/L | CHLORIDE [1]: 96.83 MEQ/L | CHOLESTEROL [1]: 72.5 mg/dL | CREATINE PHOSPHOKINASE [1]: 370.67 u/L | CREATININE [1]: 0.28 mg/dL | GLUCOSE [1]: 182.83 mg/dL | LACTATE DEHYDROGENASE [1]: 513.5 u/L | LIPASE [1]: 9.83 u/L | PHOSPHORUS [1]: 11.32 mg/dL | POTASSIUM [1]: 6.32 MEQ/L | SODIUM [1]: 145.12 MEQ/L | TOTAL BILIRUBIN [1]: 0.2 mg/dL | TOTAL PROTEIN [1]: 6.4 G/DL | URIC ACID [1]: 2.03 mg/dL | ABSOLUTE BASOPHIL [2]: 0 CELLS/uL | ABSOLUTE EOSINOPHIL [2]: 43.83 CELLS/uL | ABSOLUTE LYMPHOCYTE [2]: 7316.67 CELLS/uL | ABSOLUTE MONOCYTE [2]: 87.33 CELLS/uL | ABSOLUTE SEGMENTED NEUTROPHIL [2]: 418.83 CELLS/uL | BASOPHIL [2]: 0% | EOSINOPHIL [2]: 0.33% | ERYTHROCYTE COUNT [2]: 4.77 x10E6/uL | HEMATOCRIT [2]: 29.93% | HEMOGLOBIN [2]: 11.48 G/DL | LEUKOCYTE COUNT [2]: 7.87 x10E3/uL | LYMPHOCYTE [2]: 93.5% | MEAN CORPUSCULAR HEMOGLOBIN [2]: 24.17 pg | MEAN CORPUSCULAR HEMOGLOBIN CONCENTRATION [2]: 38.57 G/DL | MEAN CORPUSCULAR VOLUME [2]: 62.68 fL | MONOCYTE [2]: 1% | NEUTROPHIL [2]: 5.17% | NUCLEATED RED BLOOD CELLS [2]: 0 /100WBC | PLATELET COUNT [2]: 377.67 x10E3/uL | ALANINE AMINOTRANSFERASE [2]: 89 u/L | ALBUMIN [2]: 4.42 G/DL | ALKALINE PHOSPHATASE [2]: 275.17 u/L | ASPARTATE AMINOTRANSFERASE [2]: 204.17 u/L | BLOOD UREA NITROGEN [2]: 15.33 mg/dL | CARBON DIOXIDE [2]: 36.83 mmol/L | CHLORIDE [2]: 94.67 MEQ/L | CHOLESTEROL [2]: 92 mg/dL | CREATINE PHOSPHOKINASE [2]: 514.5 u/L | CREATININE [2]: 0.24 mg/dL | GLUCOSE [2]: 184.17 mg/dL | LACTATE DEHYDROGENASE [2]: 648.67 u/L | LIPASE [2]: 10 u/L | PHOSPHORUS [2]: 12.33 mg/dL | POTASSIUM [2]: 6.51 MEQ/L | SODIUM [2]: 144.63 MEQ/L | TOTAL BILIRUBIN [2]: 0.18 mg/dL | TOTAL PROTEIN [2]: 6.7 G/DL | URIC ACID [2]: 2.33 mg/dL | ABSOLUTE BASOPHIL [3]: 0 CELLS/uL | ABSOLUTE EOSINOPHIL [3]: 38.67 CELLS/uL | ABSOLUTE LYMPHOCYTE [3]: 8206.67 CELLS/uL | ABSOLUTE MONOCYTE [3]: 88.33 CELLS/uL | ABSOLUTE SEGMENTED NEUTROPHIL [3]: 499.67 CELLS/uL | BASOPHIL [3]: 0% | EOSINOPHIL [3]: 0.33% | ERYTHROCYTE COUNT [3]: 6.73 x10E6/uL | HEMATOCRIT [3]: 41.13% | HEMOGLOBIN [3]: 15.77 G/DL | LEUKOCYTE COUNT [3]: 8.83 x10E3/uL | LYMPHOCYTE [3]: 93.33% | MEAN CORPUSCULAR HEMOGLOBIN [3]: 23.47 pg | MEAN CORPUSCULAR HEMOGLOBIN CONCENTRATION [3]: 38.37 G/DL | MEAN CORPUSCULAR VOLUME [3]: 61.23 fL | MONOCYTE [3]: 1% | NEUTROPHIL [3]: 5.33% | NUCLEATED RED BLOOD CELLS [3]: 0 /100WBC | PLATELET COUNT [3]: 912.67 x10E3/uL | ALANINE AMINOTRANSFERASE [3]: 112.33 u/L | ALBUMIN [3]: 4.2 G/DL | ALKALINE PHOSPHATASE [3]: 292.67 u/L | ASPARTATE AMINOTRANSFERASE [3]: 218.67 u/L | BLOOD UREA NITROGEN [3]: 13 mg/dL | CARBON DIOXIDE [3]: 38.67 mmol/L | CHLORIDE [3]: 96.33 MEQ/L | CHOLESTEROL [3]: 79.33 mg/dL | CREATINE PHOSPHOKINASE [3]: 309.67 u/L | CREATININE [3]: 0.53 mg/dL | GLUCOSE [3]: 161.33 mg/dL | LACTATE DEHYDROGENASE [3]: 311 u/L | LIPASE [3]: 9.67 u/L | PHOSPHORUS [3]: 11.2 mg/dL | POTASSIUM [3]: 6.34 MEQ/L | SODIUM [3]: 146.93 MEQ/L | TOTAL BILIRUBIN [3]: 0.2 mg/dL | TOTAL PROTEIN [3]: 6.03 G/DL | URIC ACID [3]: 2.2 mg/dL | ABSOLUTE BASOPHIL [4]: 0 CELLS/uL | ABSOLUTE EOSINOPHIL [4]: 0 CELLS/uL | ABSOLUTE LYMPHOCYTE [4]: 7416.33 CELLS/uL | ABSOLUTE MONOCYTE [4]: 148.33 CELLS/uL | ABSOLUTE SEGMENTED NEUTROPHIL [4]: 435.33 CELLS/uL | BASOPHIL [4]: 0% | EOSINOPHIL [4]: 0% | ERYTHROCYTE COUNT [4]: 6.58 x10E6/uL | HEMATOCRIT [4]: 41.63% | HEMOGLOBIN [4]: 15.6 G/DL | LEUKOCYTE COUNT [4]: 8 x10E3/uL | LYMPHOCYTE [4]: 94% | MEAN CORPUSCULAR HEMOGLOBIN [4]: 23.7 pg | MEAN CORPUSCULAR HEMOGLOBIN CONCENTRATION [4]: 37.47 G/DL | MEAN CORPUSCULAR VOLUME [4]: 63.27 fL | MONOCYTE [4]: 1.67% | NEUTROPHIL [4]: 4.33% | NUCLEATED RED BLOOD CELLS [4]: 0 /100WBC | PLATELET COUNT [4]: 607 x10E3/uL | ALANINE AMINOTRANSFERASE [4]: 90.67 u/L | ALBUMIN [4]: 3.93 G/DL | ALKALINE PHOSPHATASE [4]: 310.33 u/L | ASPARTATE AMINOTRANSFERASE [4]: 148 u/L | BLOOD UREA NITROGEN [4]: 13 mg/dL | CARBON DIOXIDE [4]: 37 mmol/L | CHLORIDE [4]: 95.67 MEQ/L | CHOLESTEROL [4]: 85.67 mg/dL | CREATINE PHOSPHOKINASE [4]: 246 u/L | CREATININE [4]: 0.16 mg/dL | GLUCOSE [4]: 139.33 mg/dL | LACTATE DEHYDROGENASE [4]: 200 u/L | LIPASE [4]: 13 u/L | PHOSPHORUS [4]: 11.33 mg/dL | POTASSIUM [4]: 6.73 MEQ/L | SODIUM [4]: 144.83 MEQ/L | TOTAL BILIRUBIN [4]: 0.23 mg/dL | TOTAL PROTEIN [4]: 5.43 G/DL | URIC ACID [4]: 1.9 mg/dL
